Experimental data taken from patent US9657081B2, “Inhibiting peptides derived from triggering receptor expressed on myeloid cells-1 (TREM-1) TREM-like transcript 1 (TLT-1) for treatment of cardiovascular diseases” (INSERM (Institut National de la Sante et de la Recherche …, priority 2013, dated 2017).

Tests used:
Assay type in all cases: in vivo
[1] = test system: TREM-1; assay: Rat model of myocardial ischemia-reperfusion, cardiac function by conductance catheter; set-up: PRSW: unit not given beside the values; Emax / ESPVR: unit not given here; conditions: six weeks after ischemia-reperfusion; 3 mg/kg once a day for 5 days
Description: Adult male Wistar rats were subjected to myocardial ischemia-reperfusion and were randomly grouped (n=10) to receive repeated TREM-1- and TLT-1-derived peptides (3 mg/kg in 0.2 mL NaCl 0.9% once a day for 5 days) or scrambled-LR12 (3 mg/kg in 0.2 mL NaCl 0.9% once a day for 5 days). Six weeks after myocardial injury, cardiac function was investigated under anaesthesia by using a conductance catheter. Emax, ESPVR, and PRSW were higher in animals treated with TREM-1- and TLT-1-derived peptides than in control rats. All p<0.02 [controls versus LR12]).
Animals received same surgery than in permanent ischemia, but with reperfusion of ischemic area by release of the LAD ligation after 60 minutes of ischemia. The same protocol as described above was then applied.
(§1) Rats were anaesthetized with isoflurane and a 2 F high-fidelity micro-manometer catheter (SPR-407, Millar Institute, Houston, Tex., USA) was inserted into the LV via the right carotid artery. The Millar catheter was connected to a Harvard Data Acquisition System interfaced with a PC with the AcqKnowledge III software (ACQ 3.2).
To investigate the role of TREM-1- and TLT-1-derived peptides in a more relevant model of MI, we performed a transient coronary artery ligation (ischemia-reperfusion model: IR) in rats. After randomisation, animals were then imaged under anaesthesia (micro-TEP) and administered with TREM-1- and TLT-1-derived peptides (3 mg/kg daily for 5 days i.p.) or LR12-scrambled peptide. Imaging was then repeated at 6 weeks before we studied cardiac function by using a conductance catheter (Millar).

[2] = test system: TREM-1; assay: Rat model of sepsis-induced cardiac dysfunction, intrinsic cardiac function by Millar catheter; set-up: dpdtmax/Ved / PRSW: unit not given beside the values; FEVG / ESPVR: unit not given here
Source text: TREM-1- and TLT-1-derived peptides administration during rat model of sepsis-induced cardiac dysfunction is associated with an increase of intrinsic cardiac function measured by Millar catheter (FEVG, ESPVR, dpdtmax/Ved, PRSW).
as §1

[3] = biological target: T1, TREM-1 (Mus musculus, UniProt Q9JKE2); assay: Mouse model of myocardial infarction, survival; conditions: 100 μg daily for 5 days i.p.
T1 construct: endogenous in cells; host or cells: living mice (C57BL, Balb/c, ApoE-/-), in vivo
T1 sequence (Q9JKE2 21-230): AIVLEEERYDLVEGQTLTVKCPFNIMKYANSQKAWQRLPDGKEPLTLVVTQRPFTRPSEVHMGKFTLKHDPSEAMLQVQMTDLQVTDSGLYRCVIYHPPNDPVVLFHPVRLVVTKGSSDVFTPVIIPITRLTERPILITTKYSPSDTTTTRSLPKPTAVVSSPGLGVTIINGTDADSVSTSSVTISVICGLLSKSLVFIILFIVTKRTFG
Description: Adult male Balb/c mice (20-23 g) were subjected to myocardial ischemia and were randomly grouped (n=10-15 per group) to receive repeated TREM-1- and TLT-1-derived peptides (100 μg in 0.2 mL NaCl 0.9% once a day for 5 days), scrambled-LR12 (100 μg in 0.2 mL NaCl 0.9% once a day for 5 days), or 10 μg anti-TREM-1 mAb in 0.2 mL NaCl 0.9% i.p. injections. Survival was monitored over 1 wk and analyzed by Log Rank test. (There were no deaths after the 5th day). Data are representative of at least 15 different experiments.
All procedures were performed on mice male C57BL/C ranging in age from 6-8 weeks. Mice were anesthetized by an intraperitoneal injection of xylazine (60 mg/kg) and fixed in supine position. The trachea was intubated and ventilated (the tidal volume was 200 μl/25 g and the respiratory rate was 120 breaths/min). After a left thoracotomy, the left coronary artery was identified and ligated with an 8-0 prolene surgical suture at 1.0 mm distal from tip of the left auricle. LAD occlusion was confirmed by a change in myocardial color from red to white in the ischemia area (Left ventricle). The chest was closed and the skin was sutured with 6-0 silk. […]
Mice were monitored after surgery for mortality. Mice were randomized to receive or not peptides (daily ip injection for 5 days, 5 mg/kg) and monitored for survival. […]

Row | Substance | ESPVR [1] | Emax [1] | PRSW [1] | ESPVR [2] | FEVG [2] | PRSW [2] | dpdtmax/Ved [2] | mice died [3]
1 | EDAGEY (listed as Homo sapiens) [TLT1-LR6-2] | 1.8 ± 0.1 | 6.5 ± 0.9 | 99 ± 8 | 2.3 ± 0.2 | 75 ± 5.9 | 139 ± 10 | 155 ± 12 | –
2 | EDSGLY (listed as Homo sapiens) [TREM1-LP6-2] | 2.2 ± 0.1 | 6 ± 0.6 | 104 ± 5 | 2.7 ± 0.1 | 79.4 ± 9.9 | 144 ± 6 | 155 ± 15 | –
3 | ELMEGGQECADY (synthetic peptide scramble) [TLT-1-LR12scr, reference compound] | 1.1 ± 0.3 | 2.7 ± 0.3 | 65 ± 8 | 1.6 ± 0.3 | 39.9 ± 4.9 | 88 ± 8 | 61 ± 12 | 40%
4 | GEYGCM (listed as Homo sapiens) [TLT-1LR6-3] | 1.7 ± 0.3 | 5.2 ± 0.4 | 109 ± 6 | 2.2 ± 0.2 | 78 ± 8.7 | 149 ± 6 | 157 ± 10 | –
5 | GLYQCV (listed as Homo sapiens) [TREM1-LP6-3] | 2.3 ± 0.4 | 5.8 ± 0.5 | 99 ± 8 | 2.9 ± 0.4 | 78.6 ± 7.4 | 139 ± 8 | 163 ± 10 | –
6 | LQEEDA (listed as Homo sapiens) [TLT1-LR6-1] | 2.4 ± 0.4 | 4.5 ± 0.6 | 102 ± 6 | 2.9 ± 0.3 | 79.6 ± 7.4 | 142 ± 8 | 160 ± 15 | –
7 | LQEEDAGEYGCMVDGAR (listed as Homo sapiens) [TLT1-LR17] | 2 ± 0.2 | 5.1 ± 0.6 | 105 ± 6 | 2.5 ± 0.3 | 75.6 ± 7.2 | 145 ± 6 | 150 ± 12 | –
8 | LQVEDS (listed as Homo sapiens) [TREM1-LP6-1] | 2 ± 0.3 | 5.5 ± 0.4 | 105 ± 6 | 2.5 ± 0.3 | 76 ± 5.9 | 145 ± 6 | 150 ± 20 | –
9 | LQVEDSGLYQCV (listed as Homo sapiens) [TREM1-LP12] | 2.3 ± 0.4 | 4.5 ± 0.4 | 99 ± 4 | 2.8 ± 0.2 | 72 ± 9.4 | 139 ± 6 | 158 ± 18 | –
10 | LQVEDSGLYQCVIYQPP (listed as Homo sapiens) [TREM1-LP17] | 2.2 ± 0.3 | 5.9 ± 0.8 | 110 ± 5 | 2.7 ± 0.3 | 75.9 ± 8.9 | 150 + 8 | 156 ± 11 | –
